In paper PMC10406430 (Neuro-Oncology Advances, 2023):
Like-named read-outs stand apart in the source and are kept apart here. Marks after values point to notes of the source that are not given here. Blank lines part the entries; values can stand above or below the compound they belong to.

Tests used:
[1] = design: method as in earlier work; details: animal studies and a single clinical trial; ref 1-3 (supplement list); cited from earlier work
[2] = mice; consistent with cLogBB prediction models; cited from earlier work
[3] = tested on: systemic solid tumors; details: cited from earlier work
[4] = tested on: intracranial models in rodents; details: syngeneic and xenograft models, single agent and in combination with TMZ; cited from earlier work
[5] = Plasma pharmacokinetics of PAC-1 and TMZ (LC-MS/MS, non-compartmental analysis); type: in vivo, human; details: for AUC(0-inf) / CL/F / Cmax / Tmax / half-life: human, plasma, po; for AUC(0-inf): read-out: AUC0-∞, geometric mean (geometric CV%); for CL/F: read-out: CL/F, geometric mean (geometric CV%) (converted); for Cmax: read-out: Cmax, geometric mean (geometric CV%); for Tmax: read-out: Tmax, median (range); for half-life: read-out: t1/2-λ, geometric mean (geometric CV%) (converted)
Protocol: Pharmacokinetics (PK) were assessed in each dose cohort for PAC-1 following doses administered on days 7 (without TMZ) and 12 (with TMZ) of the first cycle and TMZ on day 12 of cycle 1. Both drugs were administered under fasting conditions in the morning for PAC-1 and morning or evening for TMZ. To facilitate the PK study and amplify any PK interaction between drugs, the administration of TMZ was standardized to occur in the morning on cycle 1, day 12 two hours before PAC-1. Plasma samples were collected on the mornings of days 7 and 12 of cycle 1 prior to oral ingestion of TMZ (day 12 only), 1 hour (day 12) or immediately (day 7) before administration of PAC-1 and at 0.5, 1, 2, 4, 6, 8, 10, and 24 hours after ingestion of PAC-1 (both days). The PAC-1 and TMZ concentrations in plasma were determined by validated high-performance liquid chromatography and tandem mass spectrometry (LC-MS/MS) assays. Non-compartmental analysis of the PAC-1 and TMZ plasma concentration-time data was performed using WinNonlin version 8.1 (Certara. L.P., Princeton, NJ). The analysis occurred at steady state for PAC-1 and non-steady state conditions for TMZ. Parameters included: maximum plasma concentration (Cmax), time at Cmax (Tmax), minimum plasma concentration at steady-state (Css,min), area under the PAC-1 plasma concentration-time curve over the steady-state dosing interval (AUC0-τ,ss), area under the TMZ plasma concentration-time curve from time zero to infinity (AUC0-∞), oral clearance (CL/F), volume of distribution (V/F), and terminal phase half-life (t1/2).
The PK parameters were logarithmically (natural) transformed and Css-max, Css-min, and AUC0-τ,ss normalized for a 500 mg dose across dose groups for the analysis by multiplying the parameter by the quotient of 500 mg divided by the actual dose. […] Lack of interaction was concluded when the 90% CI for the ratio was contained within the conventional bioequivalence range of 0.80 to 1.25.

[6] = tested on: P-glycoprotein efflux pump; details: cited from earlier work
[7] = tested on: human glioma cell lines; details: single agent and in combination with TMZ; cited from earlier work
[8] = tested on: cytochrome P450 isozymes (CYP) 2C19, 2D6, and 3A4; test: In vitro studies of hepatic metabolism pathways; type: in vitro ADME; details: preliminary evidence from in vitro studies (unpublished); CYP 2C19, 2D6, 3A4
[9] = tested on: glioma; details: PAC-1 in combination with TMZ and radiation; cited from earlier work
[10] = PAC-1 375 mg/day oral, Cycle 1 Day 7 (alone)
[11] = PAC-1 375 mg/day oral, Cycle 1 Day 12 (with TMZ)
[12] = PAC-1 500 mg/day oral, Cycle 1 Day 7 (alone)
[13] = PAC-1 500 mg/day oral, Cycle 1 Day 12 (with TMZ)
[14] = PAC-1 625 mg/day oral, Cycle 1 Day 7 (alone)
[15] = PAC-1 625 mg/day oral, Cycle 1 Day 12 (with TMZ)
[16] = PAC-1, Cycle 1 Day 12 (with TMZ)/Cycle 1 Day 7 (alone)
[17] = PAC-1, Cycle 1 Day 12 (with TMZ)/Cycle 1 Day 7 (alone), normalized to 500 mg
[18] = 150 mg/m2, TMZ 150 mg/m^2 oral with PAC-1 375 mg/day
[19] = 150 mg/m2, TMZ 150 mg/m^2 oral with PAC-1 500 mg/day
[20] = 150 mg/m2, TMZ 150 mg/m^2 oral with PAC-1 625 mg/day

- increase in PAC-1 CL/F with dexamethasone co-administration ([5]; 375 and 500 mg/day groups): approximately 18%
- AUCss,0-τ, geometric mean (geometric CV%) [5, 10]: 23434 (12.0) h*ng/ml
- CL/F, geometric mean (geometric CV%) [5, 10]: 185 (26.6) ml/h/kg
- Cmax, geometric mean (geometric CV%) [5, 10]: 1728 (19.6) ng/ml
- Css-min, geometric mean (geometric CV%) [5, 10]: 647.8 (11.0) ng/ml
- Tmax, median (range) [5, 10]: 3.00 (1.98-6.00) h
- V/F, geometric mean (geometric CV%) [5, 10]: 6.1 (36.1) L/kg
- AUCss,0-τ, geometric mean (geometric CV%) [5, 11]: 22519 (13.8) h*ng/ml
- CL/F, geometric mean (geometric CV%) [5, 11]: 193 (32.9) ml/h/kg
- Cmax, geometric mean (geometric CV%) [5, 11]: 1802 (19.7) ng/ml
- Css-min, geometric mean (geometric CV%) [5, 11]: 525.4 (12.3) ng/ml
- Tmax, median (range) [5, 11]: 3.00 (1.98 - 9.83) h
- V/F, geometric mean (geometric CV%) [5, 11]: 5.4 (27.3) L/kg
- t1/2-λ, geometric mean (geometric CV%) [5, 11]: 20.0 (12.0) h
- AUCss,0-τ, geometric mean (geometric CV%) [5, 12]: 32823 (28.0) h*ng/ml
- CL/F, geometric mean (geometric CV%) [5, 12]: 203 (38.1) ml/h/kg
- Cmax, geometric mean (geometric CV%) [5, 12]: 3026 (34.0) ng/ml
- Css-min, geometric mean (geometric CV%) [5, 12]: 776.8 (27.9) ng/ml
- Tmax, median (range) [5, 12]: 2.34 (0.50- 5.92) h
- V/F, geometric mean (geometric CV%) [5, 12]: 5.1 (53.0) L/kg
- t1/2-λ, geometric mean (geometric CV%) [5, 12]: 17.6 (18.9) h
- AUCss,0-τ, geometric mean (geometric CV%) [5, 13]: 34274 (13.2) h*ng/ml
- CL/F, geometric mean (geometric CV%) [5, 13]: 194 (26.0) ml/h/kg
- Cmax, geometric mean (geometric CV%) [5, 13]: 2938 (32.2) ng/ml
- Css-min, geometric mean (geometric CV%) [5, 13]: 770.0 (19.6) ng/ml
- Tmax, median (range) [5, 13]: 2.01 (1.92 - 3.07) h
- V/F, geometric mean (geometric CV%) [5, 13]: 5.0 (40.3) L/kg
- t1/2-λ, geometric mean (geometric CV%) [5, 13]: 17.9 (31.1) h
- AUCss,0-τ, geometric mean (geometric CV%) [5, 14]: 24634 (45.2) h*ng/ml
- CL/F, geometric mean (geometric CV%) [5, 14]: 322 (38.0) ml/h/kg
- Cmax, geometric mean (geometric CV%) [5, 14]: 1876 (47.5) ng/ml
- Css-min, geometric mean (geometric CV%) [5, 14]: 565.9 (47.4) ng/ml
- Tmax, median (range) [5, 14]: 1.98 (0.82 – 2.00) h
- V/F, geometric mean (geometric CV%) [5, 14]: 8.7 (40.6) L/kg
- t1/2-λ, geometric mean (geometric CV%) [5, 14]: 18.7 (42.9) h
- AUCss,0-τ, geometric mean (geometric CV%) [5, 15]: 21854 (39.7) h*ng/ml
- CL/F, geometric mean (geometric CV%) [5, 15]: 363 (31.2) ml/h/kg
- Cmax, geometric mean (geometric CV%) [5, 15]: 2124 (57.9) ng/ml
- Css-min, geometric mean (geometric CV%) [5, 15]: 480.0 (40.4) ng/ml
- Tmax, median (range) [5, 15]: 1.03 (1.00 - 4.17) h
- V/F, geometric mean (geometric CV%) [5, 15]: 9.7 (17.0) L/kg
- t1/2-λ, geometric mean (geometric CV%) [5, 15]: 18.5 (32.9) h
- PK interactions between PAC-1 and TMZ ([5]; PAC-1 375, 500 or 625 mg/day with TMZ 150 mg/m^2): did not identify PK interactions
- CL/F, Geometric Least-Square Mean Ratio (90%CI) [5, 16]: 1.07 (0.98, 1.17)
- t1/2-λ, Geometric Least-Square Mean Ratio (90%CI) [5, 16]: 1.04 (0.90, 1.22)
- AUCss,0-τ, Geometric Least-Square Mean Ratio (90%CI) [5, 17]: 0.93 (0.85, 1.02) ^†
- Cmax, Geometric Least-Square Mean Ratio (90%CI) [5, 17]: 1.02 (0.85, 1.23) ^†
- Css-min, Geometric Least-Square Mean Ratio (90%CI) [5, 17]: 0.86 (0.80, 0.92) ^†
- dose proportionality of PAC-1 plasma concentrations ([5]; between 375 mg/day and 500 mg/day): increased proportionally
- PAC-1 plasma concentrations below predicted levels ([5]; single subject in the 625 mg group, same without and with TMZ): approximately 70%
- PAC-1 CL/F ([5]; subjects from the 375 and 500 mg/day groups receiving dexamethasone): 3.68 mL/min/kg
- pathways of hepatic metabolism [8]: possible pathways of hepatic metabolism
Compound: C=CCc1cccc(/C=N/NC(=O)CN2CCN(Cc3ccccc3)CC2)c1O [PAC-1, procaspase-activating compound-1]
- extraction, elimination and oral bioavailability [1]: high extraction ratio, hepatically eliminated drug with low and variable oral bioavailability
- blood-brain barrier penetration [2]: significantly penetrate the blood-brain barrier
- recommended phase 2 dose (RP2D) ([3]; oral single agent PAC-1, patients with systemic solid tumors): 750 mg/day
- relationship between PAC-1 dose and AUC ([3]; single agent, doses up to 750 mg/day): linear relationship
- activity in intracranial models in rodents [4]: promising activity
- substrate of the P-glycoprotein efflux pump [6]: not a substrate
- activity against human glioma cell lines [7]: promising activity
- responses in canine cancer patients with glioma [9]: all treated glioma dogs had responses, including one complete response

- V/F, geometric mean (geometric CV%) ([5]; TMZ 150 mg/m^2 oral with PAC-1 375 mg/day): 0.40 (16.7) L/kg
- V/F, geometric mean (geometric CV%) ([5]; TMZ 150 mg/m^2 oral with PAC-1 500 mg/day): 0.44 (15.0) L/kg
- V/F, geometric mean (geometric CV%) ([5]; TMZ 150 mg/m^2 oral with PAC-1 625 mg/day): 0.44 (15.7) L/kg
- AUC(0-inf) [5, 18]: 22800 ng·h/mL
- CL/F [5, 18]: 2.52 mL/min/kg
- Cmax [5, 18]: 7310 ng/mL
- Tmax [5, 18]: 1 h
- half-life [5, 18]: 1.86 h
- AUC(0-inf) [5, 19]: 23800 ng·h/mL
- CL/F [5, 19]: 2.63 mL/min/kg
- Cmax [5, 19]: 7750 ng/mL
- Tmax [5, 19]: 0.98 h
- half-life [5, 19]: 1.93 h
- AUC(0-inf) [5, 20]: 23900 ng·h/mL
- CL/F [5, 20]: 2.67 mL/min/kg
- Cmax [5, 20]: 7630 ng/mL
- Tmax [5, 20]: 1 h
- half-life [5, 20]: 1.92 h
Compound: Cn1nnc2c(C(N)=O)ncn2c1=O [temozolomide, reference compound]
- impact of PAC-1 dose on PK parameters of TMZ (mixed effects analyses) ([5]; PAC-1 375, 500, 625 mg/day): did not significantly (p > 0.05) impact any PK parameters of TMZ
